Laboratory results: patent publication US20090306059A1, “CYCLIC AMINE DERIVATIVE HAVING SUBSTITUTED ALKYL GROUP” (priority 2005, published 2009)
Where a name gives a salt, the structure may show the parent alone.

Tested on: platelet aggregation caused by ADP in platelet-rich plasma (PRP) after oral administration
Assay: Test Example 2: ex vivo platelet aggregation inhibitory effect
Assay type: in vivo, rat (male Sprague-Dawley)
Conditions: 10 mg/kg orally, 4 hours before blood sampling, rat PRP, ADP final concentration 3 μM, maximum platelet aggregation ratio, read-out: Test Example 1 (% inhibition) 10 mg/kg
Method: Male Sprague-Dawley rats (8-week old, Japan SLC, Inc.), 3 to 4 animals per group, were used for the test. The platelet aggregation was measured with an automatic platelet aggregometer (MCM Hema Tracer 313M, MC Medical, Inc.) by a partially modified method of Bom et al., The Journal of Physiology, Vol. 168, Section 178 (1963). Test compounds suspended in 5% Arabian gum solution or 10% dimethylacetamide/64% polyethylene glycol 400/16% Tween 80 solution were orally administered in a dose ratio of 1 mL/kg 4 hours before blood sampling. Vehicle was orally administered 4 hours in a dose ratio of 1 mL/kg before the sampling of the blood for the control group. 6.3 ml of blood was sampled from the ventral aorta of a rat anesthetized with pentobarbital (40 mg/kg) using 3.8% (w/v) sodium citrate solution (0.7 ml) as an anticoagulant. The obtained blood containing citrate was centrifuged (230 g, 15 minutes, room temperature) to separate PRP. The blood after the separation of PRP was further centrifuged (2,000 g, 10 minutes, room temperature) to separate PPP. After the number of blood platelet in PRP was measured with a multi-item automatic blood corpuscle counter (KX-21N, Sysmex Corporation), PPP was added thereto to adjust the blood platelet to 5×10^8/ml. After PRP (240 μl) was pipetted into cuvettes, the cuvettes were set in the automatic platelet aggregometer. After preliminary warming (37° C.) for 1.5 minutes, 10 μl of ADP solution (final concentration 3 μM) was added to cause platelet aggregation. Platelet aggregation was measured for 5 minutes and the maximum platelet aggregation ratio was determined.

Row | Structure (SMILES) | inhibition at 10 mg/kg
1 | CCOC(=O)CCCN(C)C/C=C1/CN(C(C(=O)C2CC2)c2ccccc2F)CCC1SC(C)=O (stereo not shown) [Example 89, (Z)-4-(Acetylsulfanyl)-1-[2-cyclopropyl-1-(2-fluorophenyl)-2-oxoethyl]-3-(2-{N-[3-(ethoxycarbonyl)propyl]-N-methylamino}ethylidene)piperidine dihydrochloride] | 83%
2 | COC(=O)[C@@H]1CCCN1C/C=C1\CN(C(C(=O)C2CC2)c2ccccc2F)CCC1S (stereo partly drawn) [Example 26, (E)-1-[2-Cyclopropyl-1-(2-fluorophenyl)-2-oxoethyl]-3-{2-[(2S)-(methoxycarbonyl)pyrrolidin-1-yl]ethylidene}-4-sulfanylpiperidine dihydrochloride] | 92%
3 | C/C(Cn1cc(C(=O)O)cn1)=C1/CN(C(C(=O)C2CC2)c2ccccc2F)CCC1S (stereo not shown) [Example 62, (E)-3-{[2-(4-Carboxy-1H-pyrazol-1-yl)-1-methyl]ethylidene}-1-[2-cyclopropyl-1-(2-fluorophenyl)-2-oxoethyl]-4-sulfanylpiperidine hydrochloride] | 94%
4 | CC(=O)SC1CCN(C(C(=O)C2CC2)c2ccccc2F)C/C1=C/CO (stereo not shown) [Example 66, (Z)-4-(Acetylsulfanyl)-1-[2-cyclopropyl-1-(2-fluorophenyl)-2-oxoethyl]-3-(2-hydroxyethylidene)piperidine hydrochloride] | 87%
5 | CCOC(=O)CN(C)C/C=C1\CN(C(C(=O)C2CC2)c2ccccc2F)CCC1SC(C)=O (stereo not shown) [Example 81, (E)-4-(Acetylsulfanyl)-1-[2-cyclopropyl-1-(2-fluorophenyl)-2-oxoethyl]-3-{2-[N-(ethoxycarbonylmethyl)-N-methylamino]ethylidene}piperidine dihydrochloride] | 83%
6 | COC(=O)[C@@H]1CCCN1C/C=C1\CN(C(C(=O)C2CC2)c2ccccc2F)CCC1SC(C)=O (stereo partly drawn) [Example 25, (E)-4-(Acetylsulfanyl)-1-[2-cyclopropyl-1-(2-fluorophenyl)-2-oxoethyl]-3-{2-[(2S)-(methoxycarbonyl)pyrrolidin-1-yl]ethylidene}piperidine dihydrochloride] | 92%
7 | CCOC(=O)CN1CCC(/C=C2\CN(C(C(=O)C3CC3)c3ccccc3F)CCC2S)CC1 (stereo not shown) [Example 38, (E)-1-[2-Cyclopropyl-1-(2-fluorophenyl)-2-oxoethyl]-3-{[1-(ethoxycarbonylmethyl)piperidin-4-yl]methylidene}-4-sulfanylpiperidine dihydrochloride] | 66%
8 | CCOC(=O)CN1CCC(/C=C2\CN(C(C(=O)C3CC3)c3ccccc3F)CCC2SC(C)=O)CC1 (stereo not shown) [Example 36, (E)-4-(Acetylsulfanyl)-1-[2-cyclopropyl-1-(2-fluorophenyl)-2-oxoethyl]-3-{[1-(ethoxycarbonylmethyl)piperidin-4-yl]methylidene}piperidine dihydrochloride] | 80%
9 | CCOC(=O)C1CCN(C/C=C2\CN(C(C(=O)C3CC3)c3ccccc3F)CCC2S)CC1 (stereo not shown) [Example 30, (E)-1-[2-Cyclopropyl-1-(2-fluorophenyl)-2-oxoethyl]-3-{2-[4-(ethoxycarbonyl)piperidin-1-yl]ethylidene}-4-sulfanylpiperidine dihydrochloride] | 93%
10 | CCOC(=O)CCN1CCN(C/C=C2\CN(C(C(=O)C3CC3)c3ccccc3F)CCC2SC(C)=O)C(=O)C1 (stereo not shown) [Example 21, (E)-4-(Acetylsulfanyl)-1-[2-cyclopropyl-1-(2-fluorophenyl)-2-oxoethyl]-3-(2-{4-[2-(ethoxycarbonyl)ethyl]-2-oxopiperazin-1-yl}ethylidene)piperidine dihydrochloride] | 90%
11 | O=C(O)C1CCN(C/C=C2\CN(C(C(=O)C3CC3)c3ccccc3F)CCC2S)CC1 (stereo not shown) [Example 31, (E)-3-{2-[4-(Carboxypiperidine)-1-yl]ethylidene}-1-[2-cyclopropyl-1-(2-fluorophenyl)-2-oxoethyl]-4-sulfanylpiperidine dihydrochloride] | 82%
12 | CCOC(=O)C1CCN(C/C=C2\CN(C(C(=O)C3CC3)c3ccccc3F)CCC2SC(C)=O)CC1 (stereo not shown) [Example 29, (E)-4-(Acetylsulfanyl)-1-[2-cyclopropyl-1-(2-fluorophenyl)-2-oxoethyl]-3-{2-[4-(ethoxycarbonyl)piperidin-1-yl]ethylidene}piperidine dihydrochloride] | 89%
13 | CC(=O)SC1CCN(C(C(=O)C2CC2)c2ccccc2F)C/C1=C\CN1CCN(CCC(=O)O)CC1=O (stereo not shown) [Example 24, (E)-4-(Acetylsulfanyl)-3-(2-{4-[2-(carboxyethyl)]-2-oxopiperazin-1-yl}ethylidene)-1-[2-cyclopropyl-1-(2-fluorophenyl)-2-oxoethyl]piperidine dihydrochloride] | 85%
14 | COC(=O)[C@@H]1C[C@@H](O)CN1C/C=C1\CN(C(C(=O)C2CC2)c2ccccc2F)CCC1SC(C)=O (stereo partly drawn) [Example 78, (E)-4-(Acetylsulfanyl)-1-[2-cyclopropyl-1-(2-fluorophenyl)-2-oxoethyl]-3-{2-[(2S,4R)-4-hydroxy-2-(methoxycarbonyl)pyrrolidin-1-yl]ethylidene}piperidine dihydrochloride] | 75%
15 | CCOC(=O)CN(C)C/C=C1\CN(C(C(=O)C2CC2)c2ccccc2F)CCC1S (stereo not shown) [Example 82, (E)-1-[2-Cyclopropyl-1-(2-fluorophenyl)-2-oxoethyl]-3-{2-[N-(ethoxycarbonylmethyl)-N-methylamino]ethylidene}-4-sulfanylpiperidine dihydrochloride] | 81%
16 | CCOC(=O)CN1CCN(C/C=C2\CN(C(C(=O)C3CC3)c3ccccc3F)CCC2SC(C)=O)CC1=O (stereo not shown) [Example 13, (E)-4-(Acetylsulfanyl)-1-[2-cyclopropyl-1-(2-fluorophenyl)-2-oxoethyl]-3-{2-[4-(ethoxycarbonylmethyl)-3-oxopiperazin-1-yl]ethylidene}piperidine] | 63%
17 | CC(=O)SC1CCN(C(C(=O)C2CC2)c2ccccc2F)C/C1=C\CO (stereo not shown) [Example 32, (E)-4-(Acetylsulfanyl)-1-[2-cyclopropyl-1-(2-fluorophenyl)-2-oxoethyl]-3-(2-hydroxyethylidene)piperidine] | 86%
18 | O=C(O)C/C=C1\CN(C(C(=O)C2CC2)c2ccccc2F)CCC1S (stereo not shown) [Example 64, (E)-3-(2-Carboxyethylidene)-1-[2-cyclopropyl-1-(2-fluorophenyl)-2-oxoethyl]-4-sulfanylpiperidine hydrochloride] | 94%
19 | CCOC(=O)CCN1CCN(C/C=C2\CN(C(C(=O)C3CC3)c3ccccc3F)CCC2SC(C)=O)CC1=O (stereo not shown) [Example 17, (E)-4-(Acetylsulfanyl)-1-[2-cyclopropyl-1-(2-fluorophenyl)-2-oxoethyl]-3-(2-{4-[2-(ethoxycarbonyl)ethyl]-3-oxopiperazin-1-yl}ethylidene)piperidine] | 92%
20 | CCOC(=O)CN(C)C/C=C1/CN(C(C(=O)C2CC2)c2ccccc2F)CCC1S (stereo not shown) [Example 85, (Z)-1-[2-Cyclopropyl-1-(2-fluorophenyl)-2-oxoethyl]-3-{2-[N-(ethoxycarbonylmethyl)-N-methylamino]ethylidene}-4-sulfanylpiperidine dihydrochloride] | 82%
21 | O=C(O)CCCN1CCN(C/C=C2\CN(C(C(=O)C3CC3)c3ccccc3F)CCC2S)C(=O)C1 (stereo not shown) [Example 72, (E)-3-(2-{4-[3-(Carboxypropyl)]-2-oxopiperazin-1-yl}ethylidene)-1-[2-cyclopropyl-1-(2-fluorophenyl)-2-oxoethyl]-4-sulfanylpiperidine dihydrochloride] | 76%
22 | CCOC(=O)CN(C)C/C=C1/CN(C(C(=O)C2CC2)c2ccccc2F)CCC1SC(C)=O (stereo not shown) [Example 84, (Z)-4-(Acetylsulfanyl)-1-[2-cyclopropyl-1-(2-fluorophenyl)-2-oxoethyl]-3-{2-[N-(ethoxycarbonylmethyl)-N-methylamino]ethylidene}piperidine dihydrochloride] | 82%
